Reference: patent US9889113B2, “Method for reversing, preventing, delaying or stabilizing soft tissue calcification” (Panion & BF Biotech, Inc., priority 2006, dated 2018)

Tested on: cornea calcification in end stage renal disease patients
Experiment: Cornea calcification by slit-lamp photographs and Image J analysis, Phase II and open-label extension
Type: in vivo, human
Settings: for 1st eye test Calcified area on cornea (%): baseline
Procedure: Eye examinations were carried out by using a slit-lamp microscope which was connected to a digital camera (NIKON E995). Calcifications in the cornea occur close to the nasal and temporal sides of the corneal limbus and look like the band keratopathy of hypercalcemia. Observer photographed the inner side (close to nasal), outer side (close to temporal) or took a full view of the cornea where calcification was found (FIG. 6).
An image analysis software called “Image J” was used for data analysis. The image analysis software is developed to display, edit, analyze, process, save and print 8-bit, 16-bit and 32-bit images. It can calculate area and pixel value statistics of user-defined selections, measure distances and angles, and create density histograms and line profile plots. It supports standard image processing functions such as contrast manipulation, sharpening, smoothing, edge detection and median filtering. The software is developed at the Research Services Branch of the National Institute of Mental Health, an institute of the National Institutes of Health (NIH). The software can be downloaded from the NIH website.
The image analysis software is able to measure calcified area and total cornea area that are subjectively defined by the user. To estimate calcified area, the observer first loads the patient's eye picture on to the image software, crops the specific calcified region, and the software will measure the defined section accordingly (defined as how many pixels in that area). […] To estimate the size of the full cornea, the observer used the image software to crop a 90 degrees fan-shape area on the available cornea region on the picture subjectively, and then let the software calculate the size of this fan-shape area to represent ¼ of the full cornea. By multiply the number by four, the observer then got an estimate of total cornea area.
The severity of cornea calcification was evaluated based on the percentage of the cornea surface occupied by calcification, i.e. % inner side calcification+% outer side calcification, wherein inner or outer side calcification is calculated as (calcified area on inner or outer cornea/total cornea area)×100.
In this study, patients were referred to ophthalmic department for eye examination before and after ferric citrate treatment. All patients had their 1st eye examination few days before or on the first dosing day of the Phase II trial (baseline value for cornea calcification). The time for 2nd eye examination was varied. Some were examined right after the Phase II study and some were examined during the OLE period. Nonetheless, disregarding when the 2nd eye examination was taken, it must be obtained after a defined consecutive days of ferric citrate administration in order to be considered as valid value for determinating the effects of ferric citrate on the cornea calcification changes.
All patients from the ferric citrate Phase II clinical trial were followed with a drug free period for various length of time, and some patients then participated in the open-label extension treatment period. Each participating patients received two eye examinations performed by an ophthalmologist. Depending on the dates of the first and second eye examinations and the corresponding drug dosing period, not all participating patients can generate usable information. The accepted patients were those who had received consecutive dosing for at least 21 days. The period between the first and second eye examination was at least as long as the dosing period. The actual interval between the two eye examinations was not relevant for the purpose of this evaluation since the longer the time between the first and second eye examination, the higher the possibility of cornea calcification development, not the other way around. […]

[1] = 11 patients on active treatment (22 eye values)
[2] = Subject 2-01-1-002, Left eye, 2 g/day, treatment 28 days, interval between tests 61 days
[3] = Subject 2-01-1-002, Right eye, 2 g/day, treatment 28 days, interval between tests 61 days
[4] = Subject 2-01-1-004, Left eye, 6 g/day, treatment 28 days, interval between tests 78 days
[5] = Subject 2-01-1-004, Right eye, 6 g/day, treatment 28 days, interval between tests 78 days
[6] = Subject 2-01-1-006, Left eye, 6 g/day, treatment 28 days, interval between tests 50 days
[7] = Subject 2-01-1-006, Right eye, 6 g/day, treatment 28 days, interval between tests 50 days
[8] = Subject 2-01-1-009, Left eye, 4 g/day, treatment 28 days, interval between tests 50 days
[9] = Subject 2-01-1-009, Right eye, 4 g/day, treatment 28 days, interval between tests 50 days
[10] = Subject 2-01-1-012, Left eye, 2 g/day, treatment 28 days, interval between tests 66 days
[11] = Subject 2-01-1-012, Right eye, 2 g/day, treatment 28 days, interval between tests 66 days
[12] = Subject 2-01-1-018, Left eye, 6 g/day, treatment 28 days, interval between tests 75 days
[13] = Subject 2-01-1-018, Right eye, 6 g/day, treatment 28 days, interval between tests 75 days
[14] = Subject 2-01-1-022, Left eye, 6 g/day, treatment 57 days, interval between tests 217 days
[15] = Subject 2-01-1-022, Right eye, 6 g/day, treatment 57 days, interval between tests 217 days
[16] = Subject 2-01-1-042, Left eye, 6 g/day, treatment 42 days, interval between tests 199 days
[17] = Subject 2-01-1-042, Right eye, 6 g/day, treatment 42 days, interval between tests 199 days
[18] = Subject 2-01-1-048, Left eye, 4 g/day, treatment 28 days, interval between tests 186 days
[19] = Subject 2-01-1-048, Right eye, 4 g/day, treatment 28 days, interval between tests 186 days
[20] = Subject 2-01-1-050, Left eye, 6 g/day, treatment 33 days, interval between tests 198 days
[21] = Subject 2-01-1-050, Right eye, 6 g/day, treatment 33 days, interval between tests 198 days
[22] = Subject 2-01-1-068, Left eye, 6 g/day, treatment 34 days, interval between tests 202 days
[23] = Subject 2-01-1-068, Right eye, 6 g/day, treatment 34 days, interval between tests 202 days

O=C([O-])CC(O)(CC(=O)[O-])C(=O)[O-].[Fe+3] [ferric citrate]
average change of worsened eye cornea calcification values (10 worsened eye values of 11 actively treated patients): +2.20%
average change of improved eye cornea calcification values (11 improved eye values of 11 actively treated patients): −2.07%
number of eye cornea calcification values that exhibited improvement [1]: 11
number of eye cornea calcification values that remained unchanged [1]: one
number of eye cornea calcification values that exhibited worsened results (11 patients on active treatment (22 eye values), 2-6 g/day, 28 to 57 days): 10
effect on cornea calcification conditions (overall) (ESRD patients, 2-6 g/day): appears to delay or improve cornea calcification conditions
cornea calcification after treatment (FIG. 10) (Patient ID 2-01-1-012, 2 g/day, treatment period 28 days): improved cornea calcification
2nd eye test Calcified area on cornea (%) [2]: 3.75%
Difference between 1st and 2nd tests (%) [2]: −0.15%
1st eye test Calcified area on cornea (%) [2]: 3.90%
2nd eye test Calcified area on cornea (%) [3]: 0.00%
Difference between 1st and 2nd tests (%) [3]: 0.00%
1st eye test Calcified area on cornea (%) [3]: 0.00%
2nd eye test Calcified area on cornea (%) [4]: 1.10%
Difference between 1st and 2nd tests (%) [4]: −1.40%
1st eye test Calcified area on cornea (%) [4]: 2.50%
2nd eye test Calcified area on cornea (%) [5]: 2.20%
Difference between 1st and 2nd tests (%) [5]: −2.18%
1st eye test Calcified area on cornea (%) [5]: 4.38%
2nd eye test Calcified area on cornea (%) [6]: 50.36%
Difference between 1st and 2nd tests (%) [6]: −0.59%
1st eye test Calcified area on cornea (%) [6]: 50.95%
2nd eye test Calcified area on cornea (%) [7]: 29.27%
Difference between 1st and 2nd tests (%) [7]: −3.16%
1st eye test Calcified area on cornea (%) [7]: 32.43%
2nd eye test Calcified area on cornea (%) [8]: 0.00%
Difference between 1st and 2nd tests (%) [8]: −1.16%
1st eye test Calcified area on cornea (%) [8]: 1.16%
2nd eye test Calcified area on cornea (%) [9]: 1.00%
Difference between 1st and 2nd tests (%) [9]: 0.49%
1st eye test Calcified area on cornea (%) [9]: 0.51%
2nd eye test Calcified area on cornea (%) [10]: 2.09%
Difference between 1st and 2nd tests (%) [10]: −1.41%
1st eye test Calcified area on cornea (%) [10]: 3.50%
2nd eye test Calcified area on cornea (%) [11]: 4.69%
Difference between 1st and 2nd tests (%) [11]: −10.21%
1st eye test Calcified area on cornea (%) [11]: 14.90%
2nd eye test Calcified area on cornea (%) [12]: 7.72%
Difference between 1st and 2nd tests (%) [12]: 1.79%
1st eye test Calcified area on cornea (%) [12]: 5.93%
2nd eye test Calcified area on cornea (%) [13]: 38.86%
Difference between 1st and 2nd tests (%) [13]: −1.99%
1st eye test Calcified area on cornea (%) [13]: 40.85%
2nd eye test Calcified area on cornea (%) [14]: 8.37%
Difference between 1st and 2nd tests (%) [14]: 6.98%
1st eye test Calcified area on cornea (%) [14]: 1.39%
2nd eye test Calcified area on cornea (%) [15]: 7.29%
Difference between 1st and 2nd tests (%) [15]: 0.08%
1st eye test Calcified area on cornea (%) [15]: 7.21%
2nd eye test Calcified area on cornea (%) [16]: 4.91%
Difference between 1st and 2nd tests (%) [16]: 4.24%
1st eye test Calcified area on cornea (%) [16]: 0.67%
2nd eye test Calcified area on cornea (%) [17]: 3.73%
Difference between 1st and 2nd tests (%) [17]: 3.24%
1st eye test Calcified area on cornea (%) [17]: 0.49%
2nd eye test Calcified area on cornea (%) [18]: 2.01%
Difference between 1st and 2nd tests (%) [18]: 0.16%
1st eye test Calcified area on cornea (%) [18]: 1.85%
2nd eye test Calcified area on cornea (%) [19]: 2.09%
Difference between 1st and 2nd tests (%) [19]: −0.41%
1st eye test Calcified area on cornea (%) [19]: 2.50%
2nd eye test Calcified area on cornea (%) [20]: 1.62%
Difference between 1st and 2nd tests (%) [20]: 0.76%
1st eye test Calcified area on cornea (%) [20]: 0.86%
2nd eye test Calcified area on cornea (%) [21]: 1.54%
Difference between 1st and 2nd tests (%) [21]: −0.08%
1st eye test Calcified area on cornea (%) [21]: 1.62%
2nd eye test Calcified area on cornea (%) [22]: 3.09%
Difference between 1st and 2nd tests (%) [22]: 2.04%
1st eye test Calcified area on cornea (%) [22]: 1.05%
2nd eye test Calcified area on cornea (%) [23]: 2.24%
Difference between 1st and 2nd tests (%) [23]: 2.24%
1st eye test Calcified area on cornea (%) [23]: 0.00%
